Measurements from patent publication EP3822283A1, “SEMAPHORIN 3A NEURODEGENERATION MODULATORS, COMPOSITIONS AND USES THEREOF” (Consejo Superior de Investigaciones Científicas (CSIC), priority 2019, dated 2021).

Biological target: T1, Sema3A (Rattus norvegicus, UniProt Q63548)
T1 sequence (Q63548 21-772): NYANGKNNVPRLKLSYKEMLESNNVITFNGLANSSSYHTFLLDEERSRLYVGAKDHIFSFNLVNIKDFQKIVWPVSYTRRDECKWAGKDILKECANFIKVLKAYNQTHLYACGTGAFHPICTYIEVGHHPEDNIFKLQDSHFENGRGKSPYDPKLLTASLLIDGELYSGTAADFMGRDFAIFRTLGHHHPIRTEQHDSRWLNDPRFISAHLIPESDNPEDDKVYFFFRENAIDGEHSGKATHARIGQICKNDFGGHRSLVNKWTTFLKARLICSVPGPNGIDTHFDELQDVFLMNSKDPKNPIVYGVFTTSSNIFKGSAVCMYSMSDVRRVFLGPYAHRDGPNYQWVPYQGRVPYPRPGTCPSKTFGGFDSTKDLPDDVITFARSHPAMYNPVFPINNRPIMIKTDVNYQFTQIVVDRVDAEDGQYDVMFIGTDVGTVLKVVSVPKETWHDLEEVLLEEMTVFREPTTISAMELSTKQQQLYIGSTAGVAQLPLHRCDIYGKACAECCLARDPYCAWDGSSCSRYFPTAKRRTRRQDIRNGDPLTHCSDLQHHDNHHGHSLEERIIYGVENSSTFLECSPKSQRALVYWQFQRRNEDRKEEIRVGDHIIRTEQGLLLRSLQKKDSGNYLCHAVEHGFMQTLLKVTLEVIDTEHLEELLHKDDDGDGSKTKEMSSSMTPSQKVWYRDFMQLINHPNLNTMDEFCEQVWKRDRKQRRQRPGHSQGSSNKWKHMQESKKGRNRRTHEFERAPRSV
Method: To evaluate the potential of the Compound 2 to inhibit Sema3a in a relevant small animal model, a rat axotomy study was carried out. […] Adult male Sprague-Dawley rats (12-15 weeks old, 300 g) were anesthetized (50 mg/kg xylazine and 35 mg/kg ketamine), and their left optic nerves were exposed by lateral canthotomy. Briefly, the conjuctivae were incised lateral to the cornea, and the retractor bulbus muscles were separated. Through a small opening in the meninges (50-100 µm), the nerve fibers were completely transected at a distance of 2-3 mm from the globe. The procedure was performed without damage to the nerve vasculature and optic nerve blood supply and with minimal damage to the meninges by the use of a specially designed glass dissector with a 200- µm tip and a smooth blunt edge (Solomon et al., 1996, Journal of Neuroscience Methods, 70, 21-5). […] Clinical examination of the eyes was performed using a slit lamp, and the eyes were monitored for any signs of hyperemia, edema, dis- charge, fibrin, and other inflammatory parameters. […] Two independent and blinded researchers counted the number of labeled RGC in flat-mounted retinas by fluorescent microscopy. For each retina, 20 representative microscopic fields were evaluated: 10 fields from the peripheral area and 10 fields from the central area (each field covering an area of 0.069 mm2). […]

CCN(CC)CCN(CC(=O)N(CCN1CCCC1)CC(=O)N(CCC1CCCN1C)CC(N)=O)C(=O)OCc1ccccc1 (centres unmarked) [Compound 2, 2-[2-(1-methylpyrrolidin-2-yl)ethyl]-5-(2-pyrrolidin-1-yl)ethyl-8-benzyloxycarbonyl-11,11-diethyl-3,6-dioxo-2,5,8,11-tetraazaundecancarboxamide]
RGC survival compared to healthy rats (adult male Sprague-Dawley rats, optic nerve axotomy, single intravitreal dose 0.025 µg/eye immediately after surgery, 14 days after optic nerve surgery, 2 days after Di-Asp retrograde staining of RGC): 30%
prevention of RGC loss (neuroprotection) (rat optic nerve axotomy, single intravitreal dose 0.025 µg/eye in 4 µl PBS, labeled RGC counted in flat-mounted retinas): neuroprotective
